Among the data in PMC6906440, “The vertebrate Aqp14 water channel is a neuropeptide-regulated polytransporter” (Communications Biology, 2019) are urea uptake and glycerol uptake values, retold here.

Common to all, as to experiment: radiolabelled uptake in Xenopus oocytes
Common to all, as to assay type: cell-based

In assay [1] the target is T1, SsAqp14 (Salmo salar, UniProt A0A6B9KBC3).
T1 construct: full-length cDNA from kidney RNA in pT7Ts; Xenopus laevis oocytes (15 ng cRNA)
T1 sequence (A0A6B9KBC3 1-277): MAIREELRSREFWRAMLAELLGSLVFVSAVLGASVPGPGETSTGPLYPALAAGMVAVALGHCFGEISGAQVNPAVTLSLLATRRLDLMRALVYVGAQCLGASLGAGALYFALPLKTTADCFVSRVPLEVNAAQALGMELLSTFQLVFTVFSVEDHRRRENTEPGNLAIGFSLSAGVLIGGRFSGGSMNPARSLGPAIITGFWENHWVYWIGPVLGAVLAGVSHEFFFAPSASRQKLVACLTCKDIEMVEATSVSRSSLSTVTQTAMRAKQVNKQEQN
The note with it: 1 mM urea, isotonic, pH 7.5; labelled compound; channel transport.

In assay [2] the target is T2, DrAqp14 (Danio rerio, UniProt A0A0G2L4D1).
T2 construct: full-length cDNA from brain RNA in pT7Ts; Xenopus laevis oocytes (15 ng cRNA)
T2 sequence (A0A0G2L4D1 1-277): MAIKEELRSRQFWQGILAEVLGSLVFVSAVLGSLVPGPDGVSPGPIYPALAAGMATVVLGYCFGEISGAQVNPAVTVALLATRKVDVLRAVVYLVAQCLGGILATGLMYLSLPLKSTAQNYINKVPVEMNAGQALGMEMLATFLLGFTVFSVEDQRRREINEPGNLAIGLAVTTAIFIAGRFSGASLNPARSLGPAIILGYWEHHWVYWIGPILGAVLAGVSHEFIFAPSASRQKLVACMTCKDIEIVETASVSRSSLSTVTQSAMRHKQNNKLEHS
The note with it: 1 mM urea, isotonic, pH 7.5; labelled compound; channel transport.

The target in assay [3] is T3, SaAqp14 (Sparus aurata, UniProt A0A6B9KHM1).
T3 construct: full-length cDNA from brain RNA in pT7Ts; Xenopus laevis oocytes (15 ng cRNA); residues 261-276 TQNAMRAKQANKQENN
T3 sequence (A0A6B9KHM1 1-276): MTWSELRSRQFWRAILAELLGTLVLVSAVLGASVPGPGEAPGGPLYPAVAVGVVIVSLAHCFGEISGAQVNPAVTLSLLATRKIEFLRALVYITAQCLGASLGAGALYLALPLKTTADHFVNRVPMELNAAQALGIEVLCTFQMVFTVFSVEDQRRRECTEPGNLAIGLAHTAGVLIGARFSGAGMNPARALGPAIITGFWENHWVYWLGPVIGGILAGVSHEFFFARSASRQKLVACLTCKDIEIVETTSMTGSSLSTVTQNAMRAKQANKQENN
The note with it: 1 mM urea, isotonic, pH 7.5; labelled compound; channel transport.

In assay [4] the target is T3, SaAqp14. The note with it: 1 mM glycerol, isotonic, pH 7.5; labelled compound; channel transport.
Assay [5] concerns the target T1, SsAqp14. The note with it: 1 mM glycerol, isotonic, pH 7.5; labelled compound; channel transport.
Assay [6] concerns the target T2, DrAqp14. Conditions: 1 mM glycerol, isotonic, pH 7.5; labelled compound; channel transport.

As for `NC(N)=O` [urea], the urea uptake result is “Oocytes injected with SaAqp14 and SsAqp14 are also slightly permeable to glycerol, urea” in assay [1]; “oocytes expressing DrAqp14 are highly permeable to urea and hydrogen peroxide” in assay [2]; “Oocytes injected with SaAqp14 and SsAqp14 are also slightly permeable to glycerol, urea” in assay [3].
For the compound `OCC(O)CO` [glycerol], the glycerol uptake result in assay [4] is “Oocytes injected with SaAqp14 and SsAqp14 are also slightly permeable to glycerol, urea”; in assay [5], “Oocytes injected with SaAqp14 and SsAqp14 are also slightly permeable to glycerol, urea”; in assay [6] it was “as for SaAqp14 and SsAqp14 show a lesser permeability to glycerol and methylamine”.
